Values after ≈ are worked out from the molar mass of the structure shown.
What was measured:
COLO 205 = assay: In vitro cytotoxicity against human colon carcinoma (Colon-205) cells; type: functional, cell-based
HeLa = assay: In vitro cytotoxicity against human cervical carcinoma (Hela) cells at dose 50 ug/mL; type: functional, cell-based
KB = assay: In vitro cytotoxicity against human oral epidermoid carcinoma (KB) cells; type: functional, cell-based
HEp-2 = assay: In vitro cytotoxicity against human larynx carcinoma (Hep-2); type: functional, cell-based
Nucleic Acid = assay: Evaluated for binding affinity with DNA at a pH of 8 by Fluorimetric method; type: nucleic-acid assay

SMILES: CN(C)CCCOc1nccc(-c2cccs2)n1
- IC50 (COLO 205): > 50 µg/mL
- IC50 (HeLa): > 50 µg/mL
- IC50 (KB): > 50 µg/mL
- IC50 (HEp-2): > 50 µg/mL

SMILES: CN(C)CCCOc1nccc(-c2ccc(-c3cccs3)s2)n1
- IC50 (COLO 205): 7 µg/mL (≈ 20.3 µM)
- K ass (Nucleic Acid): 3e+07 M⁻¹
- IC50 (HeLa): 7 µg/mL (≈ 20.3 µM)
- IC50 (KB): 5 µg/mL (≈ 14.5 µM)
- IC50 (HEp-2): 11 µg/mL (≈ 31.8 µM)

SMILES: CN(C)CCSc1nccc(-c2ccc(-c3cccs3)s2)n1
- IC50 (COLO 205): 30 µg/mL (≈ 86.3 µM)
- K ass (Nucleic Acid): 6.5e+06 M⁻¹
- IC50 (HeLa): 25 µg/mL (≈ 71.9 µM)
- IC50 (KB): 50 µg/mL (≈ 144 µM)
- IC50 (HEp-2): 50 µg/mL (≈ 144 µM)

SMILES: CN(C)CCOc1nccc(-c2ccc(-c3cccs3)s2)n1
- IC50 (COLO 205): 12 µg/mL (≈ 36.2 µM)
- K ass (Nucleic Acid): 2.1e+07 M⁻¹
- IC50 (HeLa): 15 µg/mL (≈ 45.3 µM)
- IC50 (KB): 17 µg/mL (≈ 51.3 µM)
- IC50 (HEp-2): 16 µg/mL (≈ 48.3 µM)

SMILES: CN(C)CCSc1nccc(-c2cccs2)n1
- IC50 (COLO 205): > 50 µg/mL
- IC50 (HeLa): > 50 µg/mL
- IC50 (KB): > 50 µg/mL
- IC50 (HEp-2): > 50 µg/mL

SMILES: CN(C)CCOc1nccc(-c2cccs2)n1
- IC50 (COLO 205): > 50 µg/mL
- IC50 (HeLa): > 50 µg/mL
- IC50 (KB): > 50 µg/mL
- IC50 (HEp-2): > 50 µg/mL
